The values that follow come from patent publication US20260000669A1, “TREATMENT REGIMEN FOR AUTOIMMUNE DISEASES AND INFLAMMATORY DISEASES” (Merck Patent GmbH, priority 2022, published 2026).

In test [1] the test system is SARS-CoV-2.
Excerpt: The clinical study NCT02975349 is a phase II, randomized, placebo-controlled trial to evaluate the safety and efficacy of evobrutinib (M2951) in subjects with relapsing multiple sclerosis (RMS). […] The study was composed of a screening period of 4 weeks, a double blinded treatment period of 48 weeks, with an optional open-label extension (OLE) period of 312 weeks, and a safety follow-up period of 4 weeks post-treatment.
Patients were randomized 1:1:1:1: to receive placebo, oral evobrutinib 25 mg once-daily (QD), 75 mg QD, 75 mg twice-daily (BID), or open-label dimethyl fumarate. Patients who received placebo during the first 24 weeks of the DBP, were switched to evobrutinib 25 mg QD until the end of the double-blind period (i.e., 48 weeks). Patients participating in the OLE after the DBP received EVO 75 mg QD and then, after a mean of 49.8 weeks, switched to EVO 75 mg BID.
For the analysis of pre-vaccination, post-vaccination and post-booster vaccination S1/S2 IgG antibody levels, plasma samples were selected according to the following criteria: • Pre-vaccination: sample taken at the last doctor's visit of the patient before the date when the first COVID-19 vaccine dose was administered • post-vaccination: sample taken at the first doctor's visit of the patient that took place at least 28 days after a complete vaccination cycle (as defined by the manufacturer) was administered (for example, in case of the mRNA COVID vaccine of VAC-OLE I, at least 28 days after the date when the second dose of the mRNA COVID vaccine was administered) • post-booster vaccination: sample taken in the first doctor's visit of the patients that took place at least 7 days after the date when the booster vaccination was administered
A total of 24 patients, fulfilling the following criteria, were included in the analysis and constituted the VAC-OLE I analysis set: • Subjects who were in the OLE and received evobrutinib 75 mg BID, and • had 2 doses of mRNA vaccine against COVID reported as concomitant medication, and • signed the Informed Consent for the vaccination analysis.
Subjects were administered the two doses of vaccine during the course of the study based on investigator's judgement. Of the 24 vaccinated patients: • 20 received the mRNA vaccine by BioNTech/Pfizer • 4 patients received the mRNA vaccine by Moderna.
SARS-CoV-2 antibody levels were determined using the LIAISON® SARS-CoV-2 S1/S2 IgG assay (DiaSorin, Inc); an indirect sandwich chemiluminescent immunoassay that qualitatively detects IgG antibodies to SARS-CoV-2. […] Briefly, magnetic particles coated with recombinant S1 and S2 SARS-CoV-2 proteins were incubated with patients' plasma samples, calibrator samples or control samples. After washing away unbound material, a mouse monoclonal anti-human IgG antibody linked to an isoluminol derivative was added. Following another incubation and wash step, the starter reagents were added triggering a flash chemiluminescence reaction. The resulting light signal, representative of the amount of bound isoluminol-antibody conjugate, was measured by a photo multiplier as relative light units (RLU) and was indicative of the presence of IgG S1/S2 antibodies to SARS-CoV-2 virus. Test results are assessed qualitatively as positive or negative. The lower limit of quantification (LLoQ) in this assay was 3.8 AU/mL. In line with FDA guidance, values below a cutoff of 15 AU/mL (i.e. about 4× above the LLoQ for the assay) were considered as a negative readout.
The primary endpoint of this study was defined as fold changes in levels of S1/S2 IgG antibodies from pre- to post-vaccination.
For test [2] the following is noted: mouse model of SLE, orally administered; cited from earlier work.
Test [3] relates to SARS-CoV-2. The class given is in vivo, human.
The conditions of test [4]: mouse model of RA, orally administered; cited from earlier work.
For test [5] the following is noted: relapsing MS patients; cited from earlier work.
In test [6] the test system is SARS-CoV-2. As to conditions: MS patients, 2 to 4 weeks after second dose of mRNA COVID-19 vaccine; cited from earlier work.
Setting [7] is: overall VAC-OLE I population (N=24), evobrutinib 75 mg BID.
The mark [8] stands for this setting: seronegative subgroup (19 patients), VAC-OLE I.
Where [9] appears, read: seropositive subgroup (5 patients), VAC-OLE I.
Where [10] appears, read: all participants (N=45), VAC-OLE II, evobrutinib 75 mg BID.
Setting [11] is: booster subgroup (N=14), mRNA booster, VAC-OLE II.
Setting [12] is: participants that received mRNA vaccines (37), VAC-OLE II.
[13] abbreviates: participants that received non-mRNA vaccines (8), VAC-OLE II.
The mark [14] stands for this setting: seronegative subgroup (N=32), VAC-OLE II.
The mark [15] stands for this setting: seropositive subgroup (N=13), VAC-OLE II.

Where two headings read alike, the source gives them in different places.

As for `C=CC(=O)N1CCC(CNc2ncnc(N)c2-c2ccc(Oc3ccccc3)cc2)CC1` [evobrutinib, 1-[4-({[6-amino-5-(4-phenoxyphenyl)pyrimidin-4-yl]amino}methyl)piperidin-1-yl]prop-2-en-1-one], in the test on SARS-CoV-2 [1] (setting [7]), the “S1/S2 IgG antibody level, geometric mean, after second vaccination” value is 209.1 AU/mL. For the same molecule, the “S1/S2 IgG antibody level, geometric mean, before first vaccination” value in the test on SARS-CoV-2 [1] (setting [7]) came to 6.7 AU/mL. For the same molecule, the “S1/S2 IgG antibody level post-vaccination, geometric mean” value was 74 in the test with SARS-CoV-2 [1] (sample collected >12 weeks after second vaccination, VAC-OLE I); 264 with SARS-CoV-2 [1] (sample collected between 8 and 12 weeks after second dose, VAC-OLE I); 383 AU/mL in the test on SARS-CoV-2 [1] (sample collected less or equal to 8 weeks after second vaccination, VAC-OLE I). In addition, the “geometric mean fold change of S1/S2 IgG antibody levels” value with SARS-CoV-2 [1] (seronegative patients, VAC-OLE I) is listed as 36.0; in the test on SARS-CoV-2 [1] (seropositive patients, VAC-OLE I), 18.0. Moreover, in the test on SARS-CoV-2 [1] (setting [8]), the “S1/S2 IgG antibody level prior to vaccination (majority of patients, lower limit of quantification)” value is given as “around 3.8 AU/ml”. Moreover, in the test with SARS-CoV-2 [1] (setting [8]), the “S1/S2 IgG antibody level, geometric mean post-vaccination” value is on record as 155.8 AU/mL. Also, in the test with SARS-CoV-2 [1] (setting [9]), the “S1/S2 IgG antibody level, geometric mean after the second vaccination” value worked out at 639.6 AU/mL. Besides, the “S1/S2 IgG antibody level, geometric mean pre-vaccination” value with SARS-CoV-2 [1] (setting [9]) came to 35.5 AU/mL. Further, the “efficacy (reduction of disease severity and histological damage)” value in test [2] and in test [4] was “good efficacy” in each case. Also, the “participants with >30-fold induction of S1/S2 IgG antibody levels” value in the test on SARS-CoV-2 [3] (21 of 45 participants, VAC-OLE II) stood at 47%. In addition, the “participants with >10-fold increase of S1/S2 IgG antibody levels” value in the test on SARS-CoV-2 [3] (38 of 45 participants, VAC-OLE II) is recorded as 84%. In addition, the “S1/S2 IgG antibody geometric mean post-vaccination” value came to 672 AU/mL in the test on SARS-CoV-2 [3] (<8 weeks subgroup, VAC-OLE II); 166 AU/mL in the test on SARS-CoV-2 [3] (>8 week to ≤12 weeks subgroup, VAC-OLE II); 142 AU/mL with SARS-CoV-2 [3] (>12 weeks subgroup, VAC-OLE II). Moreover, the “participants with >30-fold change in antibody levels after vaccination” value with SARS-CoV-2 [3] (>8 and ≤12 weeks subgroup (7 of 19), VAC-OLE II) was 37%; with SARS-CoV-2 [3] (>12 weeks group (2/13), VAC-OLE II), 15%. In the test on SARS-CoV-2 [3] (all participants (N=45), VAC-OLE II), the “fold increase in anti-COVID-19 antibody levels pre- to post-vaccination” value was 45 fold. For the same molecule, the “S1/S2 IgG antibody level after a complete vaccination cycle, geometric mean” value with SARS-CoV-2 [3] (setting [10]) turned out to be 237.8 AU/mL. Also, in the test on SARS-CoV-2 [3] (setting [10]), the “S1/S2 IgG antibody level pre-vaccination, geometric mean” value worked out at 9.0 AU/mL. Also, the “fold change in the geometric mean of S1/S2 IgG antibody” value is reported as 17.7 with SARS-CoV-2 [3] (assessed >8 week to ≤12 weeks after complete vaccination cycle, VAC-OLE II); 17.8 with SARS-CoV-2 [3] (assessed >12 weeks after complete vaccination cycle, VAC-OLE II); 69.7 in the test with SARS-CoV-2 [3] (assessed ≤8 weeks after complete vaccination cycle, VAC-OLE II). Also, the “S1/S2 IgG antibody levels after booster vaccination compared to levels after the complete vaccination cycle” value in the test with SARS-CoV-2 [3] (booster subgroup (N=14), VAC-OLE II) was “Higher”. In addition, the “geometric mean fold change from post-vaccination to post-booster” value in the test with SARS-CoV-2 [3] (setting [11]) was determined as 6.3. Further, the “geometric mean fold change from pre-vaccination to post-booster” value in the test with SARS-CoV-2 [3] (setting [11]) was determined as 214. Further, in the test with SARS-CoV-2 [3] (conclusion of Example 2, comparison with published data), the “response to COVID vaccination compared with individuals not under BTK inhibitor treatment” value is listed as “comparably to healthy individuals”. Moreover, the “post-vaccination S1/S2 IgG antibody geometric mean” value was found to be 247.7 AU/mL in the test with SARS-CoV-2 [3] (setting [12]) and 197.1 AU/mL with SARS-CoV-2 [3] (setting [13]). For the same molecule, the “pre-vaccination S1/S2 IgG antibody geometric mean” value in the test on SARS-CoV-2 [3] (setting [12]) was 8.5 AU/mL; in the test on SARS-CoV-2 [3] (setting [13]), 12.1 AU/mL. The “S1/S2 IgG antibody post-vaccination geometric mean level” value in the test with SARS-CoV-2 [3] (setting [14]) is recorded as 133.6 AU/mL. For the same molecule, the “S1/S2 IgG antibody values prior to vaccination (majority of participants, lower limit of quantification)” value in the test on SARS-CoV-2 [3] (setting [14]) is 3.8 AU/mL. Moreover, the “S1/S2 IgG antibody geometric mean level after a complete vaccination cycle” value in the test with SARS-CoV-2 [3] (setting [15]) turned out to be 984.4 AU/mL. In addition, the “S1/S2 IgG antibody pre-vaccination geometric mean level” value in the test on SARS-CoV-2 [3] (setting [15]) is recorded as 55.5 AU/mL. Besides, the “results in RMS phase II trials” value in test [5] is listed as “positive results”.

With “ocrelizumab: B and/or T cell receptor directed antibody; a disease modifying treatment for multiple sclerosis”, in the test with SARS-CoV-2 [6], the “S1/S2 IgG antibody levels” value is listed as “very low”.

Consider `C=CC(=O)N1CCC[C@@H](n2c(=O)n(-c3ccc(Oc4ccccc4)cc3)c3c(N)nccc32)C1` [tolebrutinib, reference compound], for which the “results in RMS phase II trials” value in test [5] is “positive results”.
